Results: patent publication US5296493A, “1-substituted-2-(N-pheny l-N-(phenylmethyl)methanamine)-4,5-dihydro-imidazoles and related compounds and their use in treating calcium overload in brain cells” (NeuroSearch A/S, priority 1991, dated 1994)
Counter-ions that a name gives are not always drawn.

System: voltage operated calcium channels
Experiment: Inhibition of potassium (depolarization) stimulated 45Ca uptake into rat cerebral cortex synaptosomes
Type: biochemical, male Wistar rat
Conditions: concentration inhibiting 20% of potassium stimulated 45Ca uptake, corrected for basal uptake, 145 mM KCl, 15 seconds, 37° C.
Text: A high influx of calcium from extracelluar compartments into neurons is seen after opening of voltage operated calcium channels. Such opening of calcium channels may be induced by depolarization of neuronal membranes.
A crude synaptosome preparation contains small vesicles surrounded by neuronal membranes, and it is possible to study an opening of the voltage operated calcium channels in such a preparation.
In the below described test influx of ^45 Ca into synaptosomes is studied under depolarized conditions. The effect of test substances on the depolarization induced calcium uptake can thus be studied.
The cerebral cortex from a male Wistar rat is homogenized in 20 ml ice cold 0.32M saccharose. In the following steps the temperature is kept at 0° C. to 4° C. The homogenate is centrifuged at 1,000×g for 10 minutes and the supernatant recentrifuged for 20 minutes at 18,000×g. […]
The ^45 Ca uptake is stopped by filtering through glass fibre filters, which are subsequently washed 3 times with an ice cold solution of 145 mM KCl, 7 mM EGTA and 20 mM Tris HCl, pH 7.4 (5. ml). The radioactivity on the filters are measured by liquid scintillation spectrometry. […]
The test value is given as IC20, that is the concentration in μM of the test substances, which inhibit 20% of the potassium stimulated uptake of ^45 Ca. […] The IC20 value is determined from a dose response curve.

| SMILES | IC20 [nM] |
| --- | --- |
| O=C(c1ccccc1)C(c1ccccc1)N1CCN=C1CN(Cc1ccccc1)c1ccccc1 (stereo not drawn) [1-(α-Benzoylbenzyl)-2-(N-phenyl-N-(benzyl)-methanamine)-4,5-dihydro-imidazole] | 400 |
| c1ccc(CN2CCN=C2CN(Cc2ccccc2)c2ccccc2)cc1 [1-benzyl-2-(N-phenyl-N-benzyl-methanamine)-4,5-dihydro-imidazole, hydrochloride] | 400 |
